Among the data in patent EP4782453A1 (Beyang Therapeutics Co., Ltd., priority 2023, dated 2025) are IC50 and EC50 values, retold here.

Common to all, as to assay type: cell-based
Assay [1] deals with MV-4-11 (carrying MLL-AF4). Kind of assay: Inhibition of proliferation of human tumor cells (Alamar Blue, 7 days), MV-4-11. The note with it: Homo sapiens, MV4-11, 168 h, MV-4-11 cells (carrying MLL-AF4), method calls the value GI50. In a few lines:
(§1)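 Seven-day continuous compound exposure in duplicate wells, with 0.1% DMSO vehicle. Proliferation is quantified by Alamar Blue fluorescence and expressed as GI50, using Day 0 readings as the low reference.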
For orientation: Resazurin is reduced to fluorescent resorufin, in cell work by metabolically active cells.

For assay [2], the system named is MOLM-13 (carrying MLL-AF9). Briefly: Inhibition of proliferation of human tumor cells (Alamar Blue, 7 days), MOLM-13. Conditions: Homo sapiens, MOLM-13 cells (carrying MLL-AF9), method calls the value GI50. In a few lines: as §1
Assay [3] relates to MEIS1 gene expression. Kind of assay: Inhibition of MEIS1 gene expression in human tumor cells (qRT-PCR), MV-4-11. The note with it: MV4-11, MV-4-11 (carrying MLL-AF4), 48 hours of incubation, relative MEIS1 gene expression vs GAPDH, read-out: MV-4-11 MEISI EC50. The source says: (§2) Experimental Example 3: Evaluation of Inhibitory Activity of Compounds Against MEISI Gene Expression in Human Tumor Cells
(§3) The effect of test samples on MEIS1 gene expression in vitro cultured human leukemia cells MV-4-11 (carrying MLL-AF4), MOLM-13 (carrying MLL-AF9), and OCI-AML3 (carrying NPM1c) was studied.
(§4) • Human acute lymphoblastic leukemia cells MV-4-11, purchased from American Type Culture Collection, Catalog Number: CRL-9591; • Human acute myeloid leukemia cells MOLM-13, purchased from COBIOER BIOSCIENCES CO., LTD, Catalog Number: CBP60678; • Human acute myeloid leukemia cells OCI-AML3, purchased from COBIOER BIOSCIENCES CO., LTD, Catalog Number: CBP60817; • MEIS1 Primer/Probe, purchased from IDT, Catalog Number: 40831613; and • GAPDH Primer/Probe, purchased from IDT, Catalog Number: 22214836.
(§5) MV-4-11 cells were cultured in an IMDM medium containing 10% fetal bovine serum, or MOLM-13 and OCI-AML3 cells were cultured in an RPMI-1640 medium containing 20% fetal bovine serum, each supplemented with 100 U·mL^-1 penicillin and 100 µg·mL^-1 streptomycin. These cells were cultured at 37°C with 5% CO2. The suspensions of individual cell lines were prepared in their respective media and seeded into 48-well plates at a density of 100,000 cells/well. On the day of the experiment, a compound stock solution was diluted in a 6-fold gradient using DMSO. Each gradient-diluted stock solution was then further diluted 250-fold with a complete medium to prepare a series of working solutions at different concentrations. Next, 250 µL of working solution (containing the complete medium with a 2-fold serial concentration of the test compound or a positive control compound, or containing a control complete medium) was added to each well. After 48 hours of incubation, cells from the 48-well plate were collected into 1 mL centrifuge tubes, centrifuged at 1000 rpm for 5 minutes, and the complete medium was removed. Cells were washed twice with 1 mL PBS and centrifuged to remove PBS. Total RNA was extracted using the RNeasy Mini Kit (250) (QIAGEN, 74106). The threshold cycle (Ct) value for gene expression was determined using the HiScript II U+ One Step qRT-PCR Probe Kit (Vazyme) (Vazyme, Q223-01), with 3 replicates per sample. The prepared reaction mixture was placed in an ABI 7500 real-time PCR instrument, and the reaction proceeded following the procedures below. [formula]
(§6) Next, for the relative MEIS1 gene expression, the concentration (EC50) that inhibits 50% of relative MEIS1 gene expression was calculated using GraphPad Prism 8 software.

In assay [4] the test system is MEIS1 gene expression. Briefly: Inhibition of MEIS1 gene expression in human tumor cells (qRT-PCR), MOLM-13. The note with it: MOLM-13 (carrying MLL-AF9), 48 hours of incubation, relative MEIS1 gene expression vs GAPDH.
Source text: as §2, §3, §4, §5, §6
(Quantitative PCR measures a nucleic acid by following its amplification.)

Assay [5] relates to MEIS1 gene expression. Kind of assay: Inhibition of MEIS1 gene expression in human tumor cells (qRT-PCR), OCI-AML3. Conditions: OCI-AML-3, OCI-AML3 (carrying NPM1c), 48 hours of incubation, relative MEIS1 gene expression vs GAPDH.
Source text: as §2, §3, §4, §5, §6

For the molecule `CCN(C(=O)c1cc(F)ccc1-c1cc(C2(F)CN(C(=O)C3NC4CCC3CC4)C2)cn2c(C)ncc12)C(C)C` [Example 75, N-ethyl-5-fluoro-2-(6-{3-fluoro-1-[(1R,3S,4S)-2-azabicyclo[2.2.2]octan-3-carbonyl]azacyclobutan-3-yl}-3-methylimidazo[1,5-a]pyridin-8-yl)-N-(isopropyl) benzamide], the IC50 (commonly the concentration at which inhibition is half-maximal) stood at 25 nM in assay [1] and 78 nM in assay [2] (MOLM-13, 168 h). Moreover, the EC50 (commonly the concentration at which the effect is half-maximal) in assay [3] amounted to 82 nM.
Regarding `COCCN(C)CCCC(C(C)C)N1CC(c2cc(-c3ccc(F)cc3C(=O)N3CCOCC3C)c3cnn(C)c3c2)C1` (centres unmarked) [Example 185], the IC50 in assay [1] amounted to 26 nM; in assay [2] (168 h), 70 nM. The concentration giving a half-maximal response (EC50) in assay [3] came to 55 nM.
Consider `CO[C@@H]1CCCN(CCC[C@H](C(C)C)N2CC(c3cc(-c4ccc(F)cc4C(=O)N4CCOC[C@H]4C)c4c(F)nc(C)n4c3)C2)C1` [Example 305], for which the IC50 in assay [1] is 3.4 nM; in assay [2] (168 h), 12 nM. Further, in assay [3], the EC50 is 7.6 nM.
Taken in the same sequence, the figures for `CO[C@@H]1CCN(CCC[C@H](C(C)C)N2CC(c3cc(-c4ccc(F)cc4C(=O)N4CCOC[C@H]4C)c4c(F)nc(C)n4c3)C2)C1` [Example 202] were 1.8 nM, 11 nM and 3.5 nM.
For the molecule `Cc1nc(F)c2c(-c3ccc(F)cc3C(=O)N3CCOC[C@H]3C)cc(C3CN([C@H](CCCN4CCN(C5CC5)CC4)C(C)C)C3)cn12` [Example 350], the EC50 in assay [4] was 4 nM; in assay [3] it was 6.8 nM. Besides, the IC50 in assay [2] (168 h) amounted to 4.6 nM.
Turning to `CCS(=O)(=O)N[C@H]1CC[C@H](CN2CC(c3cc(-c4ccc(F)cc4C(=O)N(CC(F)F)C(C)C)c4cnc(C)n4c3)C2)CC1` [Example 138], the IC50 in assay [1] turned out to be 3 nM; in assay [2] (168 h), 7.6 nM. In addition, the EC50 in assay [4] is 8 nM; in assay [3], 15 nM.
For the molecule `Cc1nc(F)c2c(-c3ccc(F)cc3C(=O)N3CCOC[C@H]3C)cc(C3CN([C@H](CO[C@H]4CCCN(C)C4)C(C)C)C3)cn12` [Example 321-2, (3R)-4-[5-fluoro-2-(1-fluoro-3-methyl-6-{1-[(2S)-3-methyl-1-{[(3S)-1-methylpiperidin-3-yl]oxy}butan-2-yl]azacyclobutan-3-yl}imidazo[1,5-a]pyridin-8yl)benzoyl]-3-methylmorpholine], the IC50 is 2.6 nM in assay [1] and 17 nM in assay [2] (168 h). Moreover, the 50% effective concentration (EC50) in assay [4] stood at 10 nM; in assay [5], 32 nM.
With `CCN(C(=O)c1cc(F)ccc1-c1cc(C2CCN(Cc3ccc(-c4cc(OC)c(OC)nn4)cc3)C2)cn2c(C)ncc12)C(C)C` (centres unmarked) [Example 83], the IC50 in assay [1] stood at 5.5 nM; in assay [2] (168 h), 33 nM. Further, the 50% effective concentration (EC50) in assay [3] turned out to be 24 nM.
Take `CCNC(=O)N1CCC(CN2CC(c3cc(-c4ccc(F)cc4C(=O)N4CCOC[C@H]4C)c4c(F)nc(C)n4c3)C2)CC1` [Example 261]: the IC50 in assay [1] stood at 9.6 nM; in assay [2] (168 h), 23 nM. Also, in assay [3], the EC50 amounted to 8.5 nM.
Taken in the same sequence, the figures for `COCCN(C)CCC[C@H](C(C)C)N1CC(c2cc(-c3ccc(F)cc3C(=O)N3[C@H](C)COC[C@H]3C)c3cnn(C)c3c2)C1` [Example 186-2, [(4R)-4-[3-(4-{2-[(3R,5R)-3,5-dimethylmorpholin-4-carbonyl]-4-fluorophenyl}-1-methyl-1H-indazol-6-yl)azacyclobutan-1-yl]-5-methylhexyl](2-methoxyethyl)methylamine] were 4.3 nM, 28 nM and 3.8 nM.
For `CCS(=O)(=O)N[C@H]1CC[C@H](CN2CC(c3cc(-c4ccc(F)cc4C(=O)N4[C@H](C)COC[C@H]4C)c4c(F)nc(C)n4c3)C2)CC1` [Example 197, N-[(1r,4r)-4-{[3-(8-{2-[(3R,5R)-3,5-dimethylmorpholin-4-carbonyl]-4-fluorophenyl}-1-fluoro-3-methylimidazo[1,5-a]pyridin-6-yl)azacyclobutan-1-yl]methyl}cyclohexyl]ethan-1-sulfonamide], the IC50 came out at 4 nM in assay [1] and 10.2 nM in assay [2] (MOLM-13, 168 h). The EC50 in assay [3] was 14 nM.
Regarding `CCN(C(=O)c1cc(F)ccc1-c1cc(C2CN(C[C@H]3CC[C@H](NS(=O)(=O)CC)CC3)C2)cn2c(C)nc(F)c12)C(C)C` [Example 137], the IC50 in assay [1] stood at 4.7 nM; in assay [2] (168 h), 10 nM. For the same molecule, the results for the EC50 in assay [4] and in assay [3] were 9 nM and 16 nM, respectively.
As for `Cc1nc(F)c2c(-c3ccc(F)cc3C(=O)N3CCOC[C@H]3C)cc(C3CN(C(CC[C@@H]4COCCN4)C(C)C)C3)cn12` (stereo partly drawn) [Example 371, (3R)-4-{5-fluoro-2-[1-fluoro-3-methyl-6-(1-{4-methyl-1-[(3R)-morpholin-3-yl]pentan-3-yl}azacyclobutan-3-yl)imidazo[1,5-a]pyridin-8-yl]benzoyl}-3-methylmorpholine], the EC50 in assay [4] was 1.1 nM; in assay [3], 3 nM. Also, in assay [2] (168 h), the IC50 was determined as 5.3 nM.
As for `Cc1nc(F)c2c(-c3ccc(F)cc3C(=O)N3CCOCC3C)cc(C3CN(C(CCCN4CCCC(O)C4)C(C)C)C3)cn12` (centres unmarked) [Example 292], the IC50 in assay [1] was determined as 2.4 nM; in assay [2] (168 h) it was 13 nM. The EC50 in assay [3] worked out at 15 nM.
Taken in the same sequence, the figures for `CNC(=O)N1CCC([C@H](C)N2CC(c3cc(-c4ccc(F)cc4C(=O)N4CCOC[C@H]4C)c4c(F)nc(C)n4c3)C2)CC1` [Example 264-2] were 4.7 nM, 12 nM and 18 nM.
Consider `CCS(=O)(=O)N[C@H]1CC[C@H](CN2CC(c3cc(-c4ccc(F)cc4C(=O)N4CCOC[C@H]4C)c4cnc(C)n4c3)C2)CC1` [Example 134, N-[(1r,4r)-4-{[3-(8-{4-fluoro-2-[(3R)-3-methylmorpholin-4-carbonyl]phenyl}-3-methylimidazo[1,5-a]pyridin-6-yl)azacyclobutan-1-yl]methyl}cyclohexyl]ethan-1-sulfonamide], for which the IC50 is 26 nM in assay [1] and 21 nM in assay [2] (168 h). For the same molecule, the EC50 stood at 53 nM in assay [4] and 55 nM in assay [3].
As for `CO[C@H]1CCCN(CCC[C@H](C(C)C)N2CC(c3cc(-c4ccc(F)cc4C(=O)N4CCOC[C@H]4C)c4c(F)nc(C)n4c3)C2)C1` [Example 306], the IC50 in assay [1] was 2.8 nM; in assay [2] (168 h), 7.7 nM. The EC50 in assay [3] came out at 4.6 nM.
The like results for `CC(=O)N1CCC(CN2CC(c3cc(-c4ccc(F)cc4C(=O)N4[C@H](C)COC[C@H]4C)c4c(F)nc(C)n4c3)C2)CC1` [Example 205] were, in that order, 7.4 nM, 19 nM and 18 nM.
Taken in the same sequence, the figures for `Cc1nc(F)c2c(-c3ccc(F)cc3C(=O)N3[C@H](C)COC[C@H]3C)cc(C3CN(CC4CCOCC4)C3)cn12` [Example 208] were 6.6 nM, 9.6 nM and 23 nM.
On to `COCCN(C)CCCC(C(C)C)N1CC(c2cc(-c3ccc(F)cc3C(=O)N(CC(F)F)C(C)C)c3c(F)nc(C)n3c2)C1` (centres unmarked) [Example 142, N-(2,2-difluoroethyl)-5-fluoro-2-[1-fluoro-6-(1-{6-[(2-methoxyethyl)(methyl)amino]-2-methylhexan-3-yl}azacyclobutan-3-yl)-3-methylimidazo[1,5-a]pyridin-8-yl]-N-(isopropyl)benzamide], for which the IC50 turned out to be 2.2 nM in assay [1] and 10 nM in assay [2] (168 h). In addition, the EC50 was determined as 2.3 nM in assay [4] and 6 nM in assay [3].
